What was measured:
Assay in all cases: relative viability (nuclei count vs DMSO), 5 days (fraction); higher = more cells survive
Carfilzomib + Pemetrexed = compound: CC(C)C[C@H](NC(=O)[C@H](CCc1ccccc1)NC(=O)CN1CCOCC1)C(=O)N[C@@H](Cc1ccccc1)C(=O)N[C@@H](CC(C)C)C(=O)[C@@]1(C)CO1 [Carfilzomib] + Nc1nc2[nH]cc(CCc3ccc(C(=O)N[C@@H](CCC(=O)O)C(=O)O)cc3)c2c(=O)[nH]1 [Pemetrexed] (partner 0.2 µM)
Method in brief: (§1)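 Nuclei were stained with Hoechst during a one-step fixation (final 0.05% Triton X-100, 1% formaldehyde, 1 ug/ml Hoechst) carried out 5 days after dosing, then counted on 4× images. The cells, lung cancer lines in 1536-well plates, had been dosed by pin tool the day after seeding with one drug alone or a fixed anchor-drug dose plus five library-drug doses (not always all listed) in √10 steps. Relative viability is the nuclei count in treated wells divided by that in vehicle wells, and each value is the median of duplicate plates.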

Olaparib + Foretinib = compound: O=C(c1cc(Cc2n[nH]c(=O)c3ccccc23)ccc1F)N1CCN(C(=O)C2CC2)CC1 [Olaparib] + COc1cc2c(Oc3ccc(NC(=O)C4(C(=O)Nc5ccc(F)cc5)CC4)cc3F)ccnc2cc1OCCCN1CCOCC1 [Foretinib] (partner 0.25 µM)
Method in brief: as §1

Crizotinib + Luminespib = compound: C[C@@H](Oc1cc(-c2cnn(C3CCNCC3)c2)cnc1N)c1c(Cl)ccc(F)c1Cl [Crizotinib] + CCNC(=O)c1noc(-c2cc(C(C)C)c(O)cc2O)c1-c1ccc(CN2CCOCC2)cc1 [Luminespib] (partner 0.01 µM)
Method in brief: as §1

Carfilzomib + Pictilisib = compound: CC(C)C[C@H](NC(=O)[C@H](CCc1ccccc1)NC(=O)CN1CCOCC1)C(=O)N[C@@H](Cc1ccccc1)C(=O)N[C@@H](CC(C)C)C(=O)[C@@]1(C)CO1 [Carfilzomib] + CS(=O)(=O)N1CCN(Cc2cc3nc(-c4cccc5[nH]ncc45)nc(N4CCOCC4)c3s2)CC1 [Pictilisib] (partner 1 µM)
Method in brief: as §1

Cell Line | relative viability (Carfilzomib + Pemetrexed; first compound 0.001 µM) | relative viability (Carfilzomib + Pemetrexed; first compound 0.003162 µM) | relative viability (Carfilzomib + Pemetrexed; first compound 0.01 µM) | relative viability (Carfilzomib + Pemetrexed; first compound 0.03162 µM) | relative viability (Carfilzomib + Pemetrexed; first compound 0.1 µM) | relative viability (Olaparib + Foretinib; first compound 0.08 µM) | relative viability (Olaparib + Foretinib; first compound 0.253 µM) | relative viability (Olaparib + Foretinib; first compound 2.53 µM) | relative viability (Olaparib + Foretinib; first compound 8 µM) | relative viability (Crizotinib + Luminespib; first compound 0.01 µM) | relative viability (Crizotinib + Luminespib; first compound 0.03162 µM) | relative viability (Crizotinib + Luminespib; first compound 0.1 µM) | relative viability (Crizotinib + Luminespib; first compound 1 µM) | relative viability (Carfilzomib + Pictilisib; first compound 0.001 µM) | relative viability (Carfilzomib + Pictilisib; first compound 0.003162 µM) | relative viability (Carfilzomib + Pictilisib; first compound 0.01 µM) | relative viability (Carfilzomib + Pictilisib; first compound 0.03162 µM) | relative viability (Carfilzomib + Pictilisib; first compound 0.1 µM) | relative viability (Crizotinib + Luminespib; first compound 0.3162 µM)
A-427 | 0.951 | 1.02 | 0.983 | 0.842 | 0.183 | 1.03 | 1.01 | 0.769 | 0.834 | 0.91 | 0.904 | 0.946 | 0.963 | 0.776 | 0.734 | 0.632 | 0.296 | 0.092 | –
CAL-12T | 1.19 | 1.37 | 1.15 | 0.832 | 0.168 | 1.24 | 0.984 | 1.07 | 0.928 | 0.297 | 0.339 | 0.232 | 0.201 | – | 0.767 | 0.586 | 0.304 | 0.143 | –
EPLC-272H | 0.367 | 0.263 | 0.46 | 0.114 | 0.0633 | 0.764 | 0.582 | 0.729 | 0.64 | 0.236 | 0.343 | 0.197 | 0.577 | 0.188 | 0.363 | 0.322 | 0.0934 | 0.0877 | 0.262
NCI-H23 | 0.532 | 0.666 | 0.508 | 0.165 | 0.169 | 1.19 | 0.904 | 0.971 | 0.706 | 0.242 | 0.221 | 0.206 | 0.236 | 0.469 | 0.551 | 0.436 | 0.159 | 0.122 | 0.212
NCI-H1563 | 0.685 | 0.773 | 0.727 | 0.82 | 0.498 | 0.962 | 0.92 | 1.02 | 0.935 | 0.528 | 0.505 | 0.49 | 0.534 | 0.615 | 0.62 | 0.689 | 0.595 | 0.548 | 0.566
H3255 | 0.544 | 0.601 | 0.578 | 0.423 | 0.249 | 0.942 | 0.792 | 0.901 | 0.872 | 0.928 | 0.971 | 0.831 | – | 0.433 | 0.52 | 0.426 | 0.423 | 0.177 | 0.743
NCI-H1355 | 1.01 | 1.03 | 1.08 | 1 | 0.282 | 1.12 | 0.941 | 1 | 0.832 | 0.709 | 0.749 | 0.644 | 0.783 | 0.404 | 0.6 | 0.396 | 0.219 | 0.145 | 0.641
UMC-11 | 0.803 | 0.928 | 0.881 | 0.652 | 0.251 | 0.893 | 0.959 | 0.784 | 0.484 | 0.898 | 1.1 | 0.885 | 1.12 | 0.608 | 0.956 | 0.778 | 0.648 | 0.336 | 0.965
NCI-H1395 | – | 0.873 | 0.756 | 0.33 | 0.287 | 1.04 | 0.87 | 0.842 | 0.563 | 0.632 | 0.621 | 0.692 | 0.627 | 0.564 | 0.644 | 0.593 | 0.479 | 0.525 | 0.759
EMC-BAC-2 | 0.496 | 0.492 | 0.46 | 0.434 | 0.432 | 1.05 | 0.998 | 0.953 | 0.655 | 1.12 | 1.25 | 1.09 | 1.22 | 0.503 | 0.612 | 0.586 | 0.574 | 0.258 | 1.16
PC-3 [JPC-3] | 1.04 | 1.1 | 1.23 | 0.642 | 0.294 | 1.03 | 0.948 | 0.985 | 0.948 | 0.727 | 0.649 | 0.741 | 0.78 | 0.782 | 0.747 | 0.677 | 0.707 | 0.259 | 0.678
NCI-H1734 | 0.398 | 0.436 | 0.432 | 0.366 | 0.19 | 0.885 | 0.782 | 0.851 | 0.637 | 0.213 | 0.182 | 0.209 | 0.193 | 0.476 | 0.501 | 0.389 | 0.234 | 0.127 | –
HOP-62 | 0.404 | 0.304 | 0.417 | 0.0823 | 0.063 | 1.19 | 1.13 | 0.892 | 0.774 | 0.915 | 0.789 | 0.995 | 0.902 | 0.569 | 1.11 | 0.467 | 0.0638 | 0.0695 | 0.855
HARA | 0.241 | 0.23 | 0.252 | 0.0877 | 0.155 | 0.97 | 0.807 | 0.951 | 0.695 | 0.819 | 0.77 | 0.708 | 0.682 | 0.422 | 0.609 | 0.385 | 0.0609 | 0.0598 | –
NCI-H2023 | 0.237 | 0.247 | 0.227 | 0.141 | 0.0695 | 0.931 | 0.733 | 0.775 | 0.733 | 0.714 | 0.754 | 0.61 | 0.592 | 0.213 | 0.257 | 0.263 | 0.156 | 0.0927 | 0.58
NCI-H1993 | 0.593 | 0.502 | 0.574 | 0.518 | 0.351 | 0.906 | 0.794 | 1.04 | 0.931 | 0.905 | 0.889 | – | – | 0.756 | 0.771 | 0.717 | 0.648 | 0.61 | 0.852
NCI-H460 | 0.0648 | 0.0611 | 0.0649 | 0.0671 | 0.0245 | 0.925 | 0.889 | 0.914 | 0.437 | 0.0237 | 0.0313 | 0.0367 | 0.0386 | 0.438 | 0.376 | 0.381 | 0.0673 | 0.0409 | 0.0315

Reference: the supplement of paper PMC10307832
